Test results published in the kinase profiling compilation of Christmann-Franck et al. (2016).

What was measured:
Assay in all cases: KINOMEscan competition binding
Settings in all cases: compound 10.0 µM
[1] = molecular target: BMX (human) (UniProt P51813)
[2] = molecular target: MAP4K1 (human) (UniProt Q92918)
[3] = molecular target: TNK1 (human) (UniProt Q13470)
[4] = molecular target: OXSR1 (human) (UniProt O95747)
[5] = molecular target: MAK (human) (UniProt P20794)
[6] = molecular target: RIPK2 (human) (UniProt O43353)
[7] = molecular target: PIK3C2B (human) (UniProt O00750)
[8] = molecular target: CHEK1 (human) (UniProt O14757)
[9] = tested on: ABL1 (human), P00519 [Y253F]
[10] = molecular target: CSK (human) (UniProt P41240)
[11] = molecular target: STK35 (human) (UniProt Q8TDR2)
[12] = molecular target: ABL2 (human) (UniProt P42684)
[13] = molecular target: PTK2 (human) (UniProt Q05397)
[14] = molecular target: BRSK2 (human) (UniProt Q8IWQ3)
[15] = molecular target: ACVR2A (human) (UniProt P27037)
[16] = tested on: FLT3 (human), P36888 [K663Q]
[17] = molecular target: PLK4 (human) (UniProt O00444)
[18] = molecular target: ANKK1 (human) (UniProt Q8NFD2)
[19] = molecular target: JAK2 JH1 catalytic (human) (UniProt O60674)
[20] = molecular target: PIM3 (human) (UniProt Q86V86)
[21] = molecular target: PAK2 (human) (UniProt Q13177)
[22] = molecular target: STK38L (human) (UniProt Q9Y2H1)
[23] = molecular target: CAMKK2 (human) (UniProt Q96RR4)
[24] = tested on: MET (human), P08581 [M1250T]
[25] = molecular target: CDK16 (human) (UniProt Q00536)
[26] = molecular target: FGR (human) (UniProt P09769)
[27] = molecular target: LATS1 (human) (UniProt O95835)
[28] = molecular target: MARK3 (human) (UniProt P27448)
[29] = molecular target: MST4 (human) (UniProt Q9P289)
[30] = molecular target: MAP3K7 (human) (UniProt O43318)
[31] = molecular target: FES (human) (UniProt P07332)
[32] = molecular target: PRPF4B (human) (UniProt Q13523)
[33] = molecular target: TNK2 (human) (UniProt Q07912)
[34] = molecular target: MAPK4 (human) (UniProt P31152)
[35] = molecular target: SYK (human) (UniProt P43405)
[36] = molecular target: CLK4 (human) (UniProt Q9HAZ1)
[37] = molecular target: ERN1 (human) (UniProt O75460)
[38] = molecular target: TYK2 JH1 catalytic (human) (UniProt P29597)
[39] = molecular target: MAP3K11 (human) (UniProt Q16584)
[40] = molecular target: MAPK8 (human) (UniProt P45983)
[41] = molecular target: MAPKAPK2 (human) (UniProt P49137)
[42] = molecular target: RPS6KA6 KD2 (human) (UniProt Q9UK32)

Chain of FES (human) (P07332 whole entry, looked up): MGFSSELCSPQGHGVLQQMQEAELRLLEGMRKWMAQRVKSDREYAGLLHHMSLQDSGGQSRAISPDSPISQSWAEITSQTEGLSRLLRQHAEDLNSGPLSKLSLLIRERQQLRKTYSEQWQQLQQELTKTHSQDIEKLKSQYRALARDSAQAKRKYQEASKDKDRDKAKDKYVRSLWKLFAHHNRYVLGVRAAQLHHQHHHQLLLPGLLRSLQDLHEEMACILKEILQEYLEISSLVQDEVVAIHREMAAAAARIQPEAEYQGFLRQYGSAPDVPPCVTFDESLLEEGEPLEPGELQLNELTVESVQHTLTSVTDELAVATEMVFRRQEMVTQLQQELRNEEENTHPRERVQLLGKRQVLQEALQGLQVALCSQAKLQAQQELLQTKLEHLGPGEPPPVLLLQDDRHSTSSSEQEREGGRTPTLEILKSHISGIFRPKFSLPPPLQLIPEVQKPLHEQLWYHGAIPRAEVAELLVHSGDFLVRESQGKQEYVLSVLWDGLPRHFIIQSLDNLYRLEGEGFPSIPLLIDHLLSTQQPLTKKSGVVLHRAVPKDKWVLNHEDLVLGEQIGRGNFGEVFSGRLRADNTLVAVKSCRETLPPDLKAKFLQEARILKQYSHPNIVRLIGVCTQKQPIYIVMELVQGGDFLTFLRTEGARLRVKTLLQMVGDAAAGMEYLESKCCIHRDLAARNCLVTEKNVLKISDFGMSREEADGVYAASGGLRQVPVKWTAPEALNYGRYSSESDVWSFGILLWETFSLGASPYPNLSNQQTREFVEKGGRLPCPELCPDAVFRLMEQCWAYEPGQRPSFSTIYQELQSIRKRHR
Chain of PRPF4B (human) (Q13523 whole entry, looked up): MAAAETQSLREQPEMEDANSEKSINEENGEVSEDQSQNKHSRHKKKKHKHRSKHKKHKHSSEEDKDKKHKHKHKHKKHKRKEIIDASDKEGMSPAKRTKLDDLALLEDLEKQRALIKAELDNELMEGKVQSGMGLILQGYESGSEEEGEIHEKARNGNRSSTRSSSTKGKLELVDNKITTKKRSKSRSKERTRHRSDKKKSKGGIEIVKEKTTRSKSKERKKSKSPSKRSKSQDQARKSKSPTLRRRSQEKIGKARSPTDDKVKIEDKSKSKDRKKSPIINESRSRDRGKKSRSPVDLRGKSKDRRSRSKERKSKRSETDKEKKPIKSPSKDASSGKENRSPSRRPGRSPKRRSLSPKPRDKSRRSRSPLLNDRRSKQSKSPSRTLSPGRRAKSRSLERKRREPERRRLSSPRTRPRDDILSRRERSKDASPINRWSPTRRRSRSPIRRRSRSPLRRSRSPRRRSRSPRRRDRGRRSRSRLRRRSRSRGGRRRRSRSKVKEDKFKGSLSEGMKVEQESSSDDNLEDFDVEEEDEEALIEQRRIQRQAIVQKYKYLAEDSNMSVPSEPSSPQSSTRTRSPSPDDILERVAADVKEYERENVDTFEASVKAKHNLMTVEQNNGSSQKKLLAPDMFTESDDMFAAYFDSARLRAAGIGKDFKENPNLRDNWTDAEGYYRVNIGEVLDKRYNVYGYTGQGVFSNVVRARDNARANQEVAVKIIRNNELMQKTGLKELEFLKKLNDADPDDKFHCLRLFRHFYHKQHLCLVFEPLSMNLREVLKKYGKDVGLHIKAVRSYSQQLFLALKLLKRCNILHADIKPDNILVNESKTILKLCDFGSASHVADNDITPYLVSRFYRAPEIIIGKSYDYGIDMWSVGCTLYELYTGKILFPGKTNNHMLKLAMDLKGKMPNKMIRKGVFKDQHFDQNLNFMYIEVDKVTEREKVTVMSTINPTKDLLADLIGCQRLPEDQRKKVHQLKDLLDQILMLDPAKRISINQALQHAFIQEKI
Chain of MAP3K11 (human) (Q16584 whole entry, looked up): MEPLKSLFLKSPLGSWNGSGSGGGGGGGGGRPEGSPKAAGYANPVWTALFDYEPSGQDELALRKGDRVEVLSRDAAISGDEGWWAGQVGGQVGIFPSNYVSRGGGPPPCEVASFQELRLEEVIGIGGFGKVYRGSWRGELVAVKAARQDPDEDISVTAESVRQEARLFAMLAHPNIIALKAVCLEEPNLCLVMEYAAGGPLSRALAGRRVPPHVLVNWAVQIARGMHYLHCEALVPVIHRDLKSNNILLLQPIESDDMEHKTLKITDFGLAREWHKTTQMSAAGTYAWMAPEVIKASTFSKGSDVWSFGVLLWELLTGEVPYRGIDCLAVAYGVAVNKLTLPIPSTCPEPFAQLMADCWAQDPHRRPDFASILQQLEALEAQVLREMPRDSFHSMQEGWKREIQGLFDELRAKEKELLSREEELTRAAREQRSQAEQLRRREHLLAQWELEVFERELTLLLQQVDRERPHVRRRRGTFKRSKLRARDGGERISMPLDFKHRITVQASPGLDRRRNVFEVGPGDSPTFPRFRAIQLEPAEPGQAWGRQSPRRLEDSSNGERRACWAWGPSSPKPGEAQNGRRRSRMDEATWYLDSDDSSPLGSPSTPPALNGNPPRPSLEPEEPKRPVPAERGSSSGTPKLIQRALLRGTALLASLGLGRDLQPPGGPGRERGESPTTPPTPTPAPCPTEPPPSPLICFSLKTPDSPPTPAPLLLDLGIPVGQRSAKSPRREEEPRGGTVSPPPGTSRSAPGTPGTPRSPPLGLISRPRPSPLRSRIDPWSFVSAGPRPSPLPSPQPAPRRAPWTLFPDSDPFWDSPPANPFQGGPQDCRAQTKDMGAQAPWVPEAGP
Chain of STK35 (human) (Q8TDR2 whole entry, looked up): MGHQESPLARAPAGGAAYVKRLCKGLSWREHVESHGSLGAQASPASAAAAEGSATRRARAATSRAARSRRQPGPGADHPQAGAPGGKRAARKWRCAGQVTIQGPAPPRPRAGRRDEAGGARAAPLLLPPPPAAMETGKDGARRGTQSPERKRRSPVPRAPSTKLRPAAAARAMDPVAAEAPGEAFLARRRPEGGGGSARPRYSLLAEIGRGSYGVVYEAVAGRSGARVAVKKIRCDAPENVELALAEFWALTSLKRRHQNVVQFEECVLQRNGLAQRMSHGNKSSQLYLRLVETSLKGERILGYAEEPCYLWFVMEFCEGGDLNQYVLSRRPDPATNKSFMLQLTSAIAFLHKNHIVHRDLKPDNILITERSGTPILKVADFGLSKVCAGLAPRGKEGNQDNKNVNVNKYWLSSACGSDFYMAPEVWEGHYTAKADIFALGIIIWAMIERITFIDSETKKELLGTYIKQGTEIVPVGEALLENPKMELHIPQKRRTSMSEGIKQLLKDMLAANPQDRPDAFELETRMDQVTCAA
Chain of MAPK4 (human) (P31152 whole entry, looked up): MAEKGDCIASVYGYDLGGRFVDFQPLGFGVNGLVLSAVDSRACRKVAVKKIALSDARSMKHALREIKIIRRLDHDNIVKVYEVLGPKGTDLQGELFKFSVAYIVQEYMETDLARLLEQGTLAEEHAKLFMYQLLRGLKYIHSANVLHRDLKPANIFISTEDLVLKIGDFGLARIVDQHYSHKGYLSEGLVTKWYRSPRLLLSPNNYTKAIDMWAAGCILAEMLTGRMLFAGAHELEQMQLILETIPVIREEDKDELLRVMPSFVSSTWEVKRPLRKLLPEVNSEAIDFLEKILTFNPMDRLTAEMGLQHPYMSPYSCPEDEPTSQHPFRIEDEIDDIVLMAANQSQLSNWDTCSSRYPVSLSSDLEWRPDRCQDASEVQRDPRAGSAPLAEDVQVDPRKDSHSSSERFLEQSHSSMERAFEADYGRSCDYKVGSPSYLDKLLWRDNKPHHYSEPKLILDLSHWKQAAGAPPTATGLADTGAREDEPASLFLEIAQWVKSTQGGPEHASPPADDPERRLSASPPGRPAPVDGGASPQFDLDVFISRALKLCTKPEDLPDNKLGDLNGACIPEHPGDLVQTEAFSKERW
Chain of CAMKK2 (human) (Q96RR4 whole entry, looked up): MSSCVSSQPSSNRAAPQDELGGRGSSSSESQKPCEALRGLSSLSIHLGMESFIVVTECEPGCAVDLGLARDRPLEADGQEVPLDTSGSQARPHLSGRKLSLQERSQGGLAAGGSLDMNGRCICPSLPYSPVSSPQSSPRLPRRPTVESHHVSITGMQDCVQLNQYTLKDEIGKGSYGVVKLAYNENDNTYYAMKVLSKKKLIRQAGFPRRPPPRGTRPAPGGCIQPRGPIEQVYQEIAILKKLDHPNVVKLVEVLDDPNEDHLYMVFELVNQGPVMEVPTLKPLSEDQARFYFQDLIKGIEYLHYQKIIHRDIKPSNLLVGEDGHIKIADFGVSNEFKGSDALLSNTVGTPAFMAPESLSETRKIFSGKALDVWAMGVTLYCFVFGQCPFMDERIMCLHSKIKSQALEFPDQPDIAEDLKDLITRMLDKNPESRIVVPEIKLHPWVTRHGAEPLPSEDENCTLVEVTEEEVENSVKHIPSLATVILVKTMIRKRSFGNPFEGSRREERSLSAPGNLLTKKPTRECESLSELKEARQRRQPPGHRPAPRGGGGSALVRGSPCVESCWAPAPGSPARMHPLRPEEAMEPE
Chain of MAK (human) (P20794 whole entry, looked up): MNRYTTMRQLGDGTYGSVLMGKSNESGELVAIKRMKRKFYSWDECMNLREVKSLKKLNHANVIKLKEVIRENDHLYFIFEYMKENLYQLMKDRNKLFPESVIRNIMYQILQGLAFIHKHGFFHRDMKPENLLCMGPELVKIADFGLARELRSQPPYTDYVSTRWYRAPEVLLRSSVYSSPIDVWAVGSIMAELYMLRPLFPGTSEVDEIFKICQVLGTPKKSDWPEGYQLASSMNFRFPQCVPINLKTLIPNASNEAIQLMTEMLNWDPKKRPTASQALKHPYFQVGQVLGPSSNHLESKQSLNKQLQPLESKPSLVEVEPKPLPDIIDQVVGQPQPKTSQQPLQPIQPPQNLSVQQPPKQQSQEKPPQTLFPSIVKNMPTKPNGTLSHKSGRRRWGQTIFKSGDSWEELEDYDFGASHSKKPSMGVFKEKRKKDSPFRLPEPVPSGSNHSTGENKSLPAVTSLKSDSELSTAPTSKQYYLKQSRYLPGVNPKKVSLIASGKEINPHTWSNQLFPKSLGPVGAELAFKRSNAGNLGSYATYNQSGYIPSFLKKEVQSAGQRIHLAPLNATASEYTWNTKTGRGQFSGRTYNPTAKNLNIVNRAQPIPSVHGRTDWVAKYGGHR

kinase still bound, per cent of control [1]: 78%
kinase still bound, per cent of control [2]: 62%
kinase still bound, per cent of control [3]: 88%
kinase still bound, per cent of control [4]: 100%
kinase still bound, per cent of control [5]: 20%
kinase still bound, per cent of control [6]: 94%
kinase still bound, per cent of control [7]: 100%
kinase still bound, per cent of control [8]: 94%
kinase still bound, per cent of control [9]: 100%
kinase still bound, per cent of control [10]: 100%
kinase still bound, per cent of control [11]: 94%
kinase still bound, per cent of control [12]: 93%
kinase still bound, per cent of control [13]: 84%
kinase still bound, per cent of control [14]: 85%
kinase still bound, per cent of control [15]: 79%
kinase still bound, per cent of control [16]: 62%
kinase still bound, per cent of control [17]: 14%
kinase still bound, per cent of control [18]: 86%
kinase still bound, per cent of control [19]: 96%
kinase still bound, per cent of control [20]: 18%
kinase still bound, per cent of control [21]: 61%
kinase still bound, per cent of control [22]: 100%
kinase still bound, per cent of control [23]: 72%
kinase still bound, per cent of control [24]: 73%
kinase still bound, per cent of control [25]: 0.2%
kinase still bound, per cent of control [26]: 100%
kinase still bound, per cent of control [27]: 100%
kinase still bound, per cent of control [28]: 86%
kinase still bound, per cent of control [29]: 100%
kinase still bound, per cent of control [30]: 100%
kinase still bound, per cent of control [31]: 100%
kinase still bound, per cent of control [32]: 100%
kinase still bound, per cent of control [33]: 100%
kinase still bound, per cent of control [34]: 100%
kinase still bound, per cent of control [35]: 92%
kinase still bound, per cent of control [36]: 7.8%
kinase still bound, per cent of control [37]: 100%
kinase still bound, per cent of control [38]: 100%
kinase still bound, per cent of control [39]: 100%
kinase still bound, per cent of control [40]: 77%
kinase still bound, per cent of control [41]: 100%
kinase still bound, per cent of control [42]: 55%
Structure (SMILES): Cn1cc(C2=C(c3ccc(Cl)cc3Cl)C(=O)NC2=O)c2ccccc21
